In patent US9695155B2, “Herbicidal substituted pyrimidinyloxy benzene compounds” (E. I. DU PONT DE NEMOURS AND COMPANY, priority 2013, dated 2017):

Experiments:
barnyardgrass = test: Test A postemergence; format: in vivo, Echinochloa crus-galli
Outline: (§1)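 Injury scores run from 0, no effect, to 100, complete control, judged by eye against untreated plants roughly 10 days after treatment. Chemicals carried a surfactant in a non-phytotoxic solvent and went onto loam–sand soil preemergence or onto one- to two-leaf seedlings postemergence.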

giant foxtail [1] = test: Test A postemergence; format: in vivo, Setaria faberii
Outline: as §1

corn [2] = test: Test A postemergence; format: in vivo, Zea mays
Outline: as §1

Heteranthera limosa = test: Test B flooded paddy test; format: in vivo; conditions: Flood, 250 g ai/ha; 0 to 100 scale where 0 is no effect and 100 is complete control
Outline: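 Seedlings are raised to two leaves, flooded to a depth of 3 cm and dosed by adding the compound to the floodwater. Water level is kept constant, and plants are scored visually versus controls 13–15 days later (0 = no effect, 100 = complete control).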

corn [3] = test: Test C postemergence; format: in vivo, Zea mays; conditions: for Corn plant response rating / Plant response rating, Corn: scale 0 to 100 (0 no effect, 100 complete control)
Outline: (§2)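 Seeds are planted in blended loam soil and sand and treated preemergence, while seedlings in a peat moss/vermiculite medium receive postemergence sprays at 2 to 18 cm height. All plants stay in the greenhouse for 13 to 15 days before visual comparison with controls on a 0–100 scale.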

giant foxtail [4] = test: Test C postemergence; format: in vivo, Setaria faberii; conditions: for Foxtail, Giant plant response rating / Plant response rating, Foxtail, Giant: scale 0 to 100 (0 no effect, 100 complete control)
Outline: as §2

johnsongrass = test: Test C postemergence; format: in vivo, Sorghum halepense; conditions: for Johnsongrass plant response rating / Plant response rating, Johnsongrass: scale 0 to 100 (0 no effect, 100 complete control)
Outline: as §2

morningglory = test: Test C postemergence; format: in vivo, Ipomoea coccinea
Outline: as §2

pigweed = test: Test C postemergence; format: in vivo, Amaranthus retroflexus
Outline: as §2

oilseed rape = test: Test C postemergence; format: in vivo, Brassica napus
Outline: as §2

waterhemp = test: Test C postemergence; format: in vivo, Amaranthus rudis
Outline: as §2

velvetleaf = test: Test C postemergence; format: in vivo, Abutilon theophrasti
Outline: as §2

[5] = 31 g ai/ha, 0 to 100 scale, 0 no effect, 100 complete control
[6] = 125 g ai/ha, 0 to 100 scale, 0 no effect, 100 complete control
[7] = 16 g ai/ha, postemergence, 0 is no effect, 100 is complete control
[8] = 31 g ai/ha, postemergence, visual rating, 13 to 15 days
[9] = 125 g ai/ha, postemergence, visual rating
[10] = Postemergence, 62 g ai/ha, 13 to 15 days
[11] = 31 g ai/ha, postemergence, visual rating, scale 0 to 100 (0 no effect, 100 complete control), 13 to 15 days
[12] = 125 g ai/ha, postemergence, visual rating, scale 0 to 100 (0 no effect, 100 complete control)
[13] = Postemergence, 62 g ai/ha, scale 0 to 100 (0 no effect, 100 complete control), 13 to 15 days
[14] = 125 g ai/ha, 0 to 100 scale where 0 is no effect and 100 is complete control
[15] = 500 g ai/ha, 0 to 100 scale, 0 no effect, 100 complete control
[16] = 500 g ai/ha, 0 to 100 scale where 0 is no effect and 100 is complete control
[17] = 16 g ai/ha, postemergence, visual rating, 13 to 15 days
[18] = Postemergence, 31 g ai/ha, 13 to 15 days
[19] = Postemergence, 31 g ai/ha, scale 0 to 100 (0 no effect, 100 complete control), 13 to 15 days
[20] = Postemergence, 62 g ai/ha, scale 0 to 100 (0 no effect, 100 complete control)

FC(F)Oc1cnn(-c2c(Cl)cccc2Oc2ncc(Cl)cn2)c1 [Compound 258]
Plant response rating, Barnyardgrass (barnyardgrass; [5]): 10
Plant response rating, Barnyardgrass (barnyardgrass; [6]): 90
Plant response rating, Foxtail, Giant (giant foxtail [1]; [5]): 20
Plant response rating, Foxtail, Giant (giant foxtail [1]; [6]): 70
Plant response rating, Corn (corn [2]; [5]): 10
Plant response rating, Corn (corn [2]; [6]): 40
Plant response rating, Ducksalad (Heteranthera limosa): 100
Plant response rating (0 to 100), Corn (corn [3]; [7]): 5
Corn plant response rating (corn [3]; [8]): 5
Plant response rating, Corn (corn [3]; [9]): 20
Plant response rating, Corn (corn [3]; [10]): 10
Plant response rating (0 to 100), Foxtail, Giant (giant foxtail [4]; [7]): 5
Foxtail, Giant plant response rating (giant foxtail [4]; [8]): 20
Plant response rating, Foxtail, Giant (giant foxtail [4]; [9]): 45
Plant response rating, Foxtail, Giant (giant foxtail [4]; [10]): 25
Plant response rating (0 to 100), Johnsongrass (johnsongrass; [7]): 0
Johnsongrass plant response rating (johnsongrass; [8]): 5
Plant response rating, Johnsongrass (johnsongrass; [9]): 5
Plant response rating, Johnsongrass (johnsongrass; [10]): 5
Plant response rating (0 to 100), Morningglory (morningglory; [7]): 65
Morningglory plant response rating (morningglory; [11]): 85
Plant response rating, Morningglory (morningglory; [12]): 95
Plant response rating, Morningglory (morningglory; [13]): 85
Plant response rating (0 to 100), Pigweed (pigweed; [7]): 75
Pigweed plant response rating (pigweed; [11]): 85
Plant response rating, Pigweed (pigweed; [12]): 90
Plant response rating, Pigweed (pigweed; [13]): 85
Plant response rating (0 to 100), Oilseed Rape (oilseed rape; [7]): 70
Oilseed Rape plant response rating (oilseed rape; [11]): 85
Plant response rating, Oilseed Rape (oilseed rape; [12]): 98
Plant response rating, Oilseed Rape (oilseed rape; [13]): 95
Plant response rating (0 to 100), Waterhemp (waterhemp; [7]): 65
Waterhemp plant response rating (waterhemp; [11]): 70
Plant response rating, Waterhemp (waterhemp; [12]): 90
Plant response rating, Waterhemp (waterhemp; [13]): 80
Plant response rating (0 to 100), Velvetleaf (velvetleaf; [7]): 55
Velvetleaf plant response rating (velvetleaf; [11]): 65
Plant response rating, Velvetleaf (velvetleaf; [12]): 80
Plant response rating, Velvetleaf (velvetleaf; [13]): 75

CC(C)c1cnn(-c2c(C#N)cccc2Oc2ncc(Cl)cn2)c1 [Compound 85]
Plant response rating, Barnyardgrass (barnyardgrass; [14]): 90
Plant response rating, Barnyardgrass (barnyardgrass; [15]): 90
Plant response rating, Foxtail, Giant (giant foxtail [1]; [14]): 70
Plant response rating, Foxtail, Giant (giant foxtail [1]; [16]): 90
Plant response rating, Corn (corn [2]; [14]): 30
Plant response rating, Corn (corn [2]; [15]): 70
Plant response rating, Ducksalad (Heteranthera limosa): 30
Corn plant response rating (corn [3]; [17]): 5
Plant response rating (0 to 100), Corn (corn [3]; 125 g ai/ha, postemergence): 10
Plant response rating, Corn (corn [3]; [18]): 5
Plant response rating, Corn (corn [3]; Postemergence, 62 g ai/ha): 10
Foxtail, Giant plant response rating (giant foxtail [4]; [17]): 5
Plant response rating (0 to 100), Foxtail, Giant (giant foxtail [4]; 125 g ai/ha, postemergence): 15
Plant response rating, Foxtail, Giant (giant foxtail [4]; [18]): 10
Plant response rating, Foxtail, Giant (giant foxtail [4]; Postemergence, 62 g ai/ha): 10
Johnsongrass plant response rating (johnsongrass; [17]): 0
Plant response rating (0 to 100), Johnsongrass (johnsongrass; 125 g ai/ha, postemergence): 10
Plant response rating, Johnsongrass (johnsongrass; [18]): 0
Plant response rating, Johnsongrass (johnsongrass; Postemergence, 62 g ai/ha): 5
Plant response rating (0 to 100), Morningglory (morningglory; 125 g ai/ha, postemergence): 40
Plant response rating, Morningglory (morningglory; [19]): 60
Plant response rating, Morningglory (morningglory; [20]): 25
Plant response rating (0 to 100), Pigweed (pigweed; 125 g ai/ha, postemergence): 70
Plant response rating, Pigweed (pigweed; [19]): 55
Plant response rating, Pigweed (pigweed; [20]): 70
Plant response rating (0 to 100), Oilseed Rape (oilseed rape; 125 g ai/ha, postemergence): 15
Plant response rating, Oilseed Rape (oilseed rape; [19]): 5
Plant response rating, Oilseed Rape (oilseed rape; [20]): 30
Plant response rating (0 to 100), Waterhemp (waterhemp; 125 g ai/ha, postemergence): 60
Plant response rating, Waterhemp (waterhemp; [19]): 55
Plant response rating, Waterhemp (waterhemp; [20]): 70
Plant response rating (0 to 100), Velvetleaf (velvetleaf; 125 g ai/ha, postemergence): 55
Plant response rating, Velvetleaf (velvetleaf; [19]): 45
Plant response rating, Velvetleaf (velvetleaf; [20]): 45

Clc1cnc(Oc2cccc(Br)c2-n2cc(I)nn2)nc1 [Compound 117]
Plant response rating, Barnyardgrass (barnyardgrass; [14]): 70
Plant response rating, Barnyardgrass (barnyardgrass; [16]): 90
Plant response rating, Foxtail, Giant (giant foxtail [1]; [14]): 90
Plant response rating, Foxtail, Giant (giant foxtail [1]; [16]): 90
Plant response rating, Corn (corn [2]; [14]): 30
Plant response rating, Corn (corn [2]; [16]): 50
Plant response rating, Ducksalad (Heteranthera limosa): 40
Plant response rating (0 to 100), Corn (corn [3]; [7]): 5
Plant response rating, Corn (corn [3]; [9]): 5
Plant response rating, Corn (corn [3]; Postemergence, 62 g ai/ha): 5
Plant response rating (0 to 100), Foxtail, Giant (giant foxtail [4]; [7]): 20
Plant response rating, Foxtail, Giant (giant foxtail [4]; [9]): 55
Plant response rating, Foxtail, Giant (giant foxtail [4]; Postemergence, 62 g ai/ha): 40
Plant response rating (0 to 100), Johnsongrass (johnsongrass; [7]): 0
Plant response rating, Johnsongrass (johnsongrass; [9]): 5
Plant response rating, Johnsongrass (johnsongrass; Postemergence, 62 g ai/ha): 5
Plant response rating (0 to 100), Morningglory (morningglory; [7]): 80
Plant response rating, Morningglory (morningglory; [12]): 90
Plant response rating, Morningglory (morningglory; [20]): 90
Plant response rating (0 to 100), Pigweed (pigweed; [7]): 80
Plant response rating, Pigweed (pigweed; [12]): 90
Plant response rating, Pigweed (pigweed; [20]): 85
Plant response rating (0 to 100), Oilseed Rape (oilseed rape; [7]): 25
Plant response rating, Oilseed Rape (oilseed rape; [12]): 70
Plant response rating, Oilseed Rape (oilseed rape; [20]): 60
Plant response rating (0 to 100), Waterhemp (waterhemp; [7]): 60
Plant response rating, Waterhemp (waterhemp; [12]): 90
Plant response rating, Waterhemp (waterhemp; [20]): 85
Plant response rating (0 to 100), Velvetleaf (velvetleaf; [7]): 10
Plant response rating, Velvetleaf (velvetleaf; [12]): 45
Plant response rating, Velvetleaf (velvetleaf; [20]): 30
